Data reported in patent US20250082633A1, “COMPOUNDS AND METHODS FOR MODULATING SPLICING” (REMIX THERAPEUTICS INC., priority 2021, published 2025).

Experiments:
[1] = system: HiBiT-tagged MYB protein in K562 cells; assay: HiBit protein abundance assay, MYB; format: cell-based, human; conditions: K562 HiBiT-modified cells, 24 hours, luminescence
Protocol: (§1) Compounds described herein were used to screen for effects on quantitative protein abundance using a HiBit assay system (Promega). Quantitative protein abundance was determined by measuring the protein levels of HiBit-tagged protein targets expressed in cell culture via luminescence using the Nano-Glo HiBiT Lytic Detection System, which uses a split complementation assay format to reconstitute NanoBiT enzyme to generate a luminescent signal. A protein abundance assay was developed such that endogenous protein targets could be modified with the HiBiT peptide tag and their abundance could be assessed after compound treatment. Briefly, K562 cell lines containing a HiBiT-modification were treated with various compounds described herein (e.g., compounds of Formulas (I), (II), or (III)). After treatment for 24 hours, the protein abundance of a specific target was determined by measuring luminescence. • Promega Nano-Glo HiBiT Lytic Detection System (cat #N3030) • Corning 384-well TC-treated microplates (cat #3570) • Synthego Engineered Cells Knock-In Clones [table] Cells were maintained in IMDM with 10% FBS. Before the assay, cells were diluted with phenolphthalein-free growth media (IMDM+1% FBS media) and were seeded in a 384-well plate at a density of 10000 cells/well (for each cell line listed in Table 6). Each compound was prepared as a 10-point 3-fold serial dilution in DMSO with the top dose at a final concentration of 10 μM in the well. Unmodified K562 cells were added at the previously specified density with DMSO to serve as an assay baseline and positive control (PC) and DMSO only with the respective modified cell lines was added to the negative control (NC) columns. Final DMSO concentration was kept at or below 0.25%. Treated cell plates were placed in an incubator at 37° C. with 5% CO2 for 24 hours. After 24 hours, 25 μL of Complete HiBit Lytic reagent was added to each well at room temperature (e.g. one plate requiring 10 mL Lytic Buffer, 100 μL LgBiT Protein, 200 μL Lytic Substrate), shaken for 5 minutes at 600 RPM, then left to sit for 10 minutes for signal to stabilize before reading on a Spark Cyto plate reader (Tecan) with a 500 ms measurement time. To determine compound effects on protein abundance of each target in Table 6, the percent response for each respective cell line was calculated at each compound concentration as follows: For the normalized response at each concentration, a four-parameter logistical regression was fit to the data and the response was interpolated at the 50% value to determine a concentration for protein abundance at 50% (IC50) the untreated control.

Target C = assay: HiBit protein abundance assay, Target C; format: cell-based; conditions: Homo sapiens; K562 HiBiT-modified cells, 24 hours, luminescence
Protocol: as §1, with “Clones” for “Clones [table]”

SMILES | IC50 [1] [nM] | IC50 (Target C) [nM]
Cc1cn2nc(-c3cc(F)c4nn(C5CCN(CCO)C6(CC6)C5)cc4c3)cc(C)c2n1 (stereo not drawn) [Compound 180, 2-[7-[5-(2,8-dimethylimidazo[1,2-b]pyridazin-6-yl)-7-fluoro-indazol-2-yl]-4-azaspiro[2.5]octan-4-yl]ethanol] | 100 to 1000 | < 100
Cc1cn2nc(-c3cc(F)c4nn(C5CCN(CC6CC6)C6(CC6)C5)cc4c3)cc(C)c2n1 (stereo not drawn) [Compound 183, 6-[2-[4-(cyclopropylmethyl)-4-azaspiro[2.5]octan-7-yl]-7-fluoro-indazol-5-yl]-2,8-dimethyl-imidazo[1,2-b]pyridazine] | 100 to 1000 | < 100
Cc1cn2nc(-c3cc(F)c4nn(C5CCN(C6CCC6)C6(CC6)C5)cc4c3)cc(C)c2n1 (stereo not drawn) [Compound 186, 6-[2-(4-cyclobutyl-4-azaspiro[2.5]octan-7-yl)-7-fluoro-indazol-5-yl]-2,8-dimethyl-imidazo[1,2-b]pyridazine] | 100 to 1000 | < 100
Cc1cn2nc(-c3cc(F)c4nn(C5CCNC6(CCC6)C5)cc4c3)cc(C)c2n1 (stereo not drawn) [Compound 189, 6-[2-(5-azaspiro[3.5]nonan-8-yl)-7-fluoro-indazol-5-yl]-2,8-dimethyl-imidazo[1,2-b]pyridazine] | 100 to 1000 | < 100
Cc1cn2nc(-c3ccc4nn(C5CCNCC5)cc4c3)cc(C)c2n1 [Compound 192, 2,8-dimethyl-6-[2-(4-piperidyl)indazol-5-yl]imidazo[1,2-b]pyridazine] | 100 to 1000 | 100 to 1000
Cc1cn2nc(-c3cc(F)c4nn(CC5CCNCC5)cc4c3)cc(C)c2n1 [Compound 212, 6-[7-fluoro-2-(4-piperidylmethyl)indazol-5-yl]-2,8-dimethyl-imidazo[1,2-b]pyridazine] | 100 to 1000 | < 100

Further lines, results first:

IC50 [1] [nM] | IC50 (Target C) [nM] | SMILES
100 to 1000 | 100 to 1000 | Cc1cn2nc(-c3cc(F)c4nn([C@@H]5CCNC[C@H]5F)cc4c3)cc(C)c2n1 [Compound 168, 6-(7-fluoro-2-((3R,4R)-3-fluoropiperidin-4-yl)-2H-indazol-5-yl)-2,8-dimethylimidazo [1,2-b]pyridazine]
100 to 1000 | < 100 | Cc1cn2nc(-c3cc(F)c4nn(C5CCNC6(CC6)C5)cc4c3)cc(C)c2n1 (stereo not drawn) [Compound 171, 6-[2-(4-azaspiro[2.5]octan-7-yl)-7-fluoro-indazol-5-yl]-2,8-dimethyl-imidazo[1,2-b]pyridazine]
< 100 | < 100 | Cc1cn2nc(-c3cc(F)c4nn([C@H]5CCNC6(CC6)C5)cc4c3)cc(C)c2n1 [Compound 172]
100 to 1000 | < 100 | Cc1cn2nc(-c3cc(F)c4nn([C@@H]5CCNC6(CC6)C5)cc4c3)cc(C)c2n1 [Compound 173]
100 to 1000 | < 100 | Cc1cn2nc(-c3cc(F)c4nn(C5CCN(C)C6(CC6)C5)cc4c3)cc(C)c2n1 (stereo not drawn) [Compound 174, 6-[7-fluoro-2-(4-methyl-4-azaspiro[2.5]octan-7-yl)indazol-5-yl]-2,8-dimethyl-imidazo[1,2-b]pyridazine]
100 to 1000 | < 100 | CCN1CCC(n2cc3cc(-c4cc(C)c5nc(C)cn5n4)cc(F)c3n2)CC12CC2 (stereo not drawn) [Compound 177, 6-[2-(4-ethyl-4-azaspiro[2.5]octan-7-yl)-7-fluoro-indazol-5-yl]-2,8-dimethyl-imidazo[1,2-b]pyridazine]
